Source: patent US8367328B2, “Method for synthesizing DNA” (Takara Bio Inc., priority 1998, dated 2013)

Molecular target: T1, KOD DNA Polymerase (Thermococcus kodakarensis, UniProt P77933, DEL407-766/DEL852-1388)
T1 construct: purchased TOYOBO CO., LTD
Assay: PCR with KOD DNA Polymerase (α-type) in the presence of acidic substances
Format: biochemical, Pyrococcus sp.
Conditions: 10 kb fragment, 100 pg λDNA, 30 cycles 98°C 5 s–68°C 3 min
Experimental: (1) Using sodium alginate, sodium hyaluronate (manufactured by Seikagaku Kogyo), or κ carrageenan (manufactured by Sigma), the effects of these acidic substances on α-type DNA polymerase were examined. A reaction mixture comprising λDNA as a template, primers λ1 and λ8 as a primer pair, and KOD DNA Polymerase (manufactured by TOYOBO CO., LTD.) as DNA polymerase was prepared, and PCR was carried out. The composition of the reaction mixture is as follows. Composition of Reaction Mixture: KOD DNA Polymerase Buffer I (manufactured by TOYOBO CO., LTD.) 0.2 mM each of dATP, dCTP, dGTP and dTTP, 0.625 U of KOD DNA Polymerase, 100 pg of λDNA, and 5 pmol each of primers λ1 and λ8 (a final volume being 25 μl). Further, 1 μg or 2.5 μg of sodium alginate, 0.1 μg or 0.5 μg of sodium hyaluronate, or 0.1 μg or 0.25 μg of κ carrageenan was respectively added to the above reaction mixture.
The reaction in 30 cycles was carried out for each of these reaction mixtures, wherein one cycle of reaction comprises a process consisting of 98° C., 5 seconds—68° C., 3 minutes. Thereafter, 5 μl of the resulting reaction mixture was subjected to electrophoresis on 1% agarose gel containing ethidium bromide in an amount of 0.00005%, whereby an amplified fragment was confirmed.
(2) The effects on α-type DNA polymerase were also examined in the same manner as in item (1) above for sodium alginate, κ carrageenan, sodium heparan sulfate (manufactured by Sigma), sodium dermatan sulfate (manufactured by Sigma), potassium polyvinyl sulfate (manufactured by nacalaitesque) or sodium polystyrenesulfonate (two kinds: average molecular weights of 5,400 and 35,000, all manufactured by nacalaitesque). A reaction mixture comprising λDNA as a template, primers λ1 and λ8 as a primer pair, and KOD DNA Polymerase as DNA polymerase was prepared, and PCR was carried out. The composition of the reaction mixture is as follows. Composition of Reaction Mixture: KOD DNA Polymerase Buffer II (manufactured by TOYOBO CO., LTD.) 0.2 mM each of dATP, dCTP, dGTP and dTTP, 1.25 U of KOD DNA Polymerase, 100 pg of λDNA, and 10 pmol each of primers λ1 and λ8 (a final volume being 50 μl). Further, 2.5 μg or 5 μg of sodium alginate, 0.25 μg or 0.5 μg of κ carrageenan, or 125 ng, 250 ng or 375 ng of sodium dermatan sulfate, 500 ng of sodium heparan sulfate, 10 ng of potassium polyvinyl sulfate, 2.5 ng or 5 ng of sodium polystyrenesulfonate (average molecular weight: 5,400), or 5 ng of sodium polystyrenesulfonate (average molecular weight: 35,000) was respectively added to the above reaction mixture.

T1 sequence (P77933 other isoform, or with tags, fused parts or gaps DEL407-766/DEL852-1388): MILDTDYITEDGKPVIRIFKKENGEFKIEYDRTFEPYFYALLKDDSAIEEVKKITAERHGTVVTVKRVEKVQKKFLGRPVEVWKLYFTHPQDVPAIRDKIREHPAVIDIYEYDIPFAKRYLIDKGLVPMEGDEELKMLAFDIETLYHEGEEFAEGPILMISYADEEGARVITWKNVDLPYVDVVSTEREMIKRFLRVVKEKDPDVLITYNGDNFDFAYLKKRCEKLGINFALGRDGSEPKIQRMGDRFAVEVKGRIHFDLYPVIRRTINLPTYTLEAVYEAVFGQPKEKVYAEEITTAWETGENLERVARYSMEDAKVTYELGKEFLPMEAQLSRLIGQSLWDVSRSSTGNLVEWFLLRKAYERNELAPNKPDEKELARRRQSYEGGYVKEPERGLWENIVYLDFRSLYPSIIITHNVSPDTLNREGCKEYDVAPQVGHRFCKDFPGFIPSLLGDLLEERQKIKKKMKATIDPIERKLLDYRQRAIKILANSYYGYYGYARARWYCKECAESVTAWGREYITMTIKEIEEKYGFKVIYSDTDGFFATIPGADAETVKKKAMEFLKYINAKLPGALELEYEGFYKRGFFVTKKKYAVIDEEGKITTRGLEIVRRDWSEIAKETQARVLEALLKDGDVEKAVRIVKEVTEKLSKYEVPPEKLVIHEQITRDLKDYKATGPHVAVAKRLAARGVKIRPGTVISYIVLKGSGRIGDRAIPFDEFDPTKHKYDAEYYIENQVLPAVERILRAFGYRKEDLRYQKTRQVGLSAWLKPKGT

## sodium alginate
Buffer I, 0.625 U KOD, primers λ1/λ8, 25 μl, amount added 1 μg
  Amplification Results: ++ (Intensive amplification being observed)
Buffer I, 0.625 U KOD, primers λ1/λ8, 25 μl, amount added 2.5 μg
  Amplification Results: ++ (Intensive amplification being observed)
Buffer II, 1.25 U KOD, primers λ1/λ8, 50 μl, amount added 2.5 μg
  Amplification Results: ++ (Intensive amplification being observed)
Buffer II, 1.25 U KOD, primers λ1/λ8, 50 μl, amount added 5 μg
  Amplification Results: ++ (Intensive amplification being observed)
